Measurements reported in paper PMC8903829 (eLife, 2022).
Where “and” joins values, the source holds several entries; their conditions need not be identical. Equal entries are not always repeated. Entries after “also recorded” stand apart in the source; their conditions may differ.

Legend:
hNaV1.6 I1327V = biological target: T1, hNaV1.6 I1327V (Homo sapiens, UniProt Q9UQD0, I1327V); assay: Automated patch-clamp, patient-identified variant in Expi293F cells; format: cell-based
T1 construct: expression vector containing the full-length cDNA coding for specific human and mouse sodium channel α-subunit; expressed in transfected cells; host or cells: Expi293F (transient, tetracycline-induced, pcDNA4/TO)
Protocol: (§1) For studies of mutant channels, cDNA plasmids in pcDNA4/TO Mammalian Expression Vector were transiently transfected into Expi293F cells stably expressing human FHF2b and human SCN1B subunit (polyclonal) background using ExpiFectamine 293 Transfection Kits (Gibco,Thermo Fisher Scientific CAT #: A14524). Induction was achieved using Tetracycline (Sigma Aldrich). Transfected cells were used in automated patch-clamp experiments 24 hours postinduction.
(§2) Inorm(CPD)=(ICPD−Icontrol)/(ITTX−Icontrol).

hNaV1.6 N1768D = biological target: T2, hNaV1.6 N1768D (Homo sapiens, UniProt Q9UQD0, N1768D); assay: as above; format: cell-based
T2 construct: expression vector containing the full-length cDNA coding for specific human and mouse sodium channel α-subunit; expressed in transfected cells; host or cells: Expi293F (transient, tetracycline-induced, pcDNA4/TO)
Protocol: as §1, §2

hNaV1.6 N1877S = biological target: T3, hNaV1.6 N1877S (Homo sapiens, UniProt Q9UQD0, N1877S); assay: as above; format: cell-based
T3 construct: expression vector containing the full-length cDNA coding for specific human and mouse sodium channel α-subunit; expressed in transfected cells; host or cells: Expi293F (transient, tetracycline-induced, pcDNA4/TO)
Protocol: as §1, §2

hNaV1.6 R1617Q = biological target: T4, hNaV1.6 R1617Q (Homo sapiens, UniProt Q9UQD0, R1617Q); assay: as above; format: cell-based
T4 construct: expression vector containing the full-length cDNA coding for specific human and mouse sodium channel α-subunit; expressed in transfected cells; host or cells: Expi293F (transient, tetracycline-induced, pcDNA4/TO)
Protocol: as §1, §2

hNaV1.6 R1872W = biological target: T5, hNaV1.6 R1872W (Homo sapiens, UniProt Q9UQD0, R1872W); assay: as above; format: cell-based
T5 construct: expression vector containing the full-length cDNA coding for specific human and mouse sodium channel α-subunit; expressed in transfected cells; host or cells: Expi293F (transient, tetracycline-induced, pcDNA4/TO)
Protocol: as §1, §2

hNaV1.6 R850Q = biological target: T6, hNaV1.6 R850Q (Homo sapiens, UniProt Q9UQD0, R850Q); assay: as above; format: cell-based
T6 construct: expression vector containing the full-length cDNA coding for specific human and mouse sodium channel α-subunit; expressed in transfected cells; host or cells: Expi293F (transient, tetracycline-induced, pcDNA4/TO)
Protocol: as §1, §2

[1] = test system: fast spiking interneurons; assay: Current-clamp recording in brain slices, action-potential firing; format: cell-based, mouse
Protocol: Parasagittal cortical brain slices were prepared from> P21 mice using standard procedures (adapted from Tai et al., PNAS 2014). Briefly, the mouse was deeply anaesthetized with isoflurane and decapitated. The brain was removed and placed into chilled artificial cerebrospinal fluid (aCSF) solution containing (in mM): 125 NaCl, 25 NaHCO3, 2.5 KCl, 1.25 NaH2PO4, 2 CaCl2, 2 MgCl2, 10 d-glucose, pH 7.3, osmolarity adjusted to ~306 mOsm using sucrose. All solutions were saturated with 95% O2 and 5% CO2 constantly perfused with 95% O2/5% CO2. Slices with a thickness of 400 µm were prepared using a vibratome (Ted Pella, Inc). Following sectioning, the slices were placed in a holding chamber and incubated in a water bath at 34 °C for 15 min. The brain slices were removed from the water bath and held at room temperature for 60 min prior to recording.
All experiments involving rodent subjects were performed in accordance with the guidelines of the Canadian Council on Animal Care (CCAC). Following a 60-min incubation at room temperature, a brain slice was selected and placed on the stage of an upright microscope (SliceScope Pro 2000, Scientifica). The slice was constantly perfused with room temperature aCSF, containing 0.1% DMSO as a vehicle control, and oxygenated with 95% O2/5% CO2.The slice was visualized using brightfield microscopy, and a healthy neuron was selected from neocortical layer 5. […] Stimulation was applied in current-clamp mode, and consisted of a series of 1000ms square pulses, beginning at –20 pA and increasing by +20 pA increments (3000ms between pulses).
The slice was incubated in circulating compound for 10 min before repeating the series of square pulse stimulations. Working stock solutions were prepared in DMSO at a concentration of 20 mM.
All data analysis was done offline using ClampFit 10.7 (Molecular Devices). Data are presented as a mean ± SEM. For each sweep, the number of evoked APs was counted, and plotted as a function of current injection (beginning with –20 pA). […] Statistical significance was assessed using paired, two-way, student’s t-test applied at each current injection level with significance considered p < 0.05.

T6 sequence (Q9UQD0 whole entry R850Q): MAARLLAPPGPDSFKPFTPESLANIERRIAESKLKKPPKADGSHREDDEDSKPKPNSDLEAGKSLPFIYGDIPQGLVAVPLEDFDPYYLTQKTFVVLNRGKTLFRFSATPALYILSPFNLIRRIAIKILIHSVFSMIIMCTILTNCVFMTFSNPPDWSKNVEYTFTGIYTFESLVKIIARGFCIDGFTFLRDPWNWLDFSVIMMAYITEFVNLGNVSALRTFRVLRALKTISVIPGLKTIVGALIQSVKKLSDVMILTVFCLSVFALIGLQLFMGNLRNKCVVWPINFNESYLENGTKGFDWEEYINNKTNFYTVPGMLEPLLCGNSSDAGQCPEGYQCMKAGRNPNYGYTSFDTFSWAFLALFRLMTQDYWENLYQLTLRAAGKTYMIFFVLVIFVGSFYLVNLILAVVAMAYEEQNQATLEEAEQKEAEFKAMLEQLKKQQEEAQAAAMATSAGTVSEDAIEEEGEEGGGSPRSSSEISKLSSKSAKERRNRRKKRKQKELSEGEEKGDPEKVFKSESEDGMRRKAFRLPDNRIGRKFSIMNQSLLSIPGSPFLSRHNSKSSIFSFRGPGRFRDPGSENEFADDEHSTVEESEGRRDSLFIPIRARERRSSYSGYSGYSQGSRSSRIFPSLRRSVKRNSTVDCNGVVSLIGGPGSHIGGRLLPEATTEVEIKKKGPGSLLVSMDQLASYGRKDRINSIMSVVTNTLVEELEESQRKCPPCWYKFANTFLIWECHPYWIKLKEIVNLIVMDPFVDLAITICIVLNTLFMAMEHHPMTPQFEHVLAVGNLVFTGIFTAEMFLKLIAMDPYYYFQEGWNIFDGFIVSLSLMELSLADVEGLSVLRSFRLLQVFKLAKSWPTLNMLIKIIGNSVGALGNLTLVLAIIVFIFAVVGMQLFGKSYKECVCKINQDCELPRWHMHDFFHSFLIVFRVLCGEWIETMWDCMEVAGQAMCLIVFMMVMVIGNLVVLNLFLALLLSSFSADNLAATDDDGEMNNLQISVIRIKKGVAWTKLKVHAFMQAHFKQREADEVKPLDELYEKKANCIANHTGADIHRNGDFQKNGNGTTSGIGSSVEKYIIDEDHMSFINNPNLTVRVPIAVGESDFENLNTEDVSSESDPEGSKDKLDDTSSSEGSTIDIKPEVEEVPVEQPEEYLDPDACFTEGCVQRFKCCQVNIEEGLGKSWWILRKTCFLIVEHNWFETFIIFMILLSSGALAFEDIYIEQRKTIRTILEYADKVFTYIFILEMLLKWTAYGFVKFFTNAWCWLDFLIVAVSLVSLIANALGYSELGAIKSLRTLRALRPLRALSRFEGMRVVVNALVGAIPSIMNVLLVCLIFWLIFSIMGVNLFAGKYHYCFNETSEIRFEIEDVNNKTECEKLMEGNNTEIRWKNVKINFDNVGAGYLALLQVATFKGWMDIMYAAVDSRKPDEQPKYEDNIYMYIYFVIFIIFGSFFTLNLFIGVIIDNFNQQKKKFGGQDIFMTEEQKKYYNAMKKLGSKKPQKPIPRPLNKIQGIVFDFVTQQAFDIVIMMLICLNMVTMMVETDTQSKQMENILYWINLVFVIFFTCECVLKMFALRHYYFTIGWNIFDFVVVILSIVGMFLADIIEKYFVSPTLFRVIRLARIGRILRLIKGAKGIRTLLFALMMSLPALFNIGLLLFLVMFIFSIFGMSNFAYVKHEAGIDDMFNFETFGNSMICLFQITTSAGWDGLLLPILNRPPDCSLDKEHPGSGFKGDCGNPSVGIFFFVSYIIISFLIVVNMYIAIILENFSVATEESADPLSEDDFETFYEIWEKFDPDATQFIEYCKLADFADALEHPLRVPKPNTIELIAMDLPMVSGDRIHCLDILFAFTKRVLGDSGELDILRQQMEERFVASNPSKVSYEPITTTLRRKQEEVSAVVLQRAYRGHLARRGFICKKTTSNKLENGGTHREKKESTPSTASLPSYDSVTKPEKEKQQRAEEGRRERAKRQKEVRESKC
T1 sequence (Q9UQD0 whole entry I1327V): as the sequence (Q9UQD0 whole entry R850Q) above, with Q850R, I1327V counted along it
T4 sequence (Q9UQD0 whole entry R1617Q): as the sequence (Q9UQD0 whole entry R850Q) above, with Q850R, R1617Q counted along it
T2 sequence (Q9UQD0 whole entry N1768D): as the sequence (Q9UQD0 whole entry R850Q) above, with Q850R, N1768D counted along it
T5 sequence (Q9UQD0 whole entry R1872W): as the sequence (Q9UQD0 whole entry R850Q) above, with Q850R, R1872W counted along it
T3 sequence (Q9UQD0 whole entry N1877S): as the sequence (Q9UQD0 whole entry R850Q) above, with Q850R, N1877S counted along it

## Cc1cc(S(=O)(=O)Nc2cscn2)c(F)cc1N(C)[C@H]1CCN(Cc2ccccc2)C1 [NBI-921352]
hNaV1.6 I1327V
  IC50: 35 nM
hNaV1.6 I1327V; -5 LogM
  h1.6-I1327V 145756, Mean: 0.91
hNaV1.6 I1327V; -5.47716 LogM
  h1.6-I1327V 145756, Mean: 0.88
hNaV1.6 I1327V; -5.95429 LogM
  h1.6-I1327V 145756, Mean: 0.9
hNaV1.6 I1327V; -6.4318 LogM
  h1.6-I1327V 145756, Mean: 0.82
hNaV1.6 I1327V; -6.91009 LogM
  h1.6-I1327V 145756, Mean: 0.67
hNaV1.6 I1327V; -7.38722 LogM
  h1.6-I1327V 145756, Mean: 0.56
hNaV1.6 I1327V; -7.85387 LogM
  h1.6-I1327V 145756, Mean: 0.29
hNaV1.6 I1327V; -8.33 LogM
  h1.6-I1327V 145756, Mean: 0.13
hNaV1.6 N1768D; -5 LogM
  h1.6-N1768D 145756 norm, Mean: 0.9
hNaV1.6 N1768D; -5.47716 LogM
  h1.6-N1768D 145756 norm, Mean: 0.88
hNaV1.6 N1768D; -5.95429 LogM
  h1.6-N1768D 145756 norm, Mean: 0.82
hNaV1.6 N1768D; -6.4318 LogM
  h1.6-N1768D 145756 norm, Mean: 0.74
hNaV1.6 N1768D; -6.91009 LogM
  h1.6-N1768D 145756 norm, Mean: 0.62
hNaV1.6 N1768D; -7.38722 LogM
  h1.6-N1768D 145756 norm, Mean: 0.46
hNaV1.6 N1768D; -7.85387 LogM
  h1.6-N1768D 145756 norm, Mean: 0.18
hNaV1.6 N1768D; -8.33 LogM
  h1.6-N1768D 145756 norm, Mean: 0.03
hNaV1.6 N1877S; -5 LogM
  h1.6-N1877S 145756 norm, Mean: 0.94
hNaV1.6 N1877S; -5.47716 LogM
  h1.6-N1877S 145756 norm, Mean: 0.93
hNaV1.6 N1877S; -5.95429 LogM
  h1.6-N1877S 145756 norm, Mean: 0.88
hNaV1.6 N1877S; -6.4318 LogM
  h1.6-N1877S 145756 norm, Mean: 0.84
hNaV1.6 N1877S; -6.91009 LogM
  h1.6-N1877S 145756 norm, Mean: 0.68
hNaV1.6 N1877S; -7.38722 LogM
  h1.6-N1877S 145756 norm, Mean: 0.53
hNaV1.6 N1877S; -7.85387 LogM
  h1.6-N1877S 145756 norm, Mean: 0.27
hNaV1.6 N1877S; -8.33 LogM
  h1.6-N1877S 145756 norm, Mean: 0.1
hNaV1.6 R1617Q; -5 LogM
  h1.6-R1617Q 145756, Mean: 0.85
hNaV1.6 R1617Q; -6 LogM
  h1.6-R1617Q 145756, Mean: 0.64
hNaV1.6 R1617Q; -7 LogM
  h1.6-R1617Q 145756, Mean: 0.24
hNaV1.6 R1617Q; -8 LogM
  h1.6-R1617Q 145756, Mean: 0.07
hNaV1.6 R1872W; -5 LogM
  h1.6-R1872W 145756, Mean: 0.9
hNaV1.6 R1872W; -6 LogM
  h1.6-R1872W 145756, Mean: 0.87
hNaV1.6 R1872W; -7 LogM
  h1.6-R1872W 145756, Mean: 0.55
hNaV1.6 R1872W; -8 LogM
  h1.6-R1872W 145756, Mean: 0.13
hNaV1.6 R850Q
  IC50: 21 nM
hNaV1.6 R850Q; -5 LogM
  h1.6-R850Q 145756, Mean: 0.91
hNaV1.6 R850Q; -5.47716 LogM
  h1.6-R850Q 145756, Mean: 0.88
hNaV1.6 R850Q; -5.95429 LogM
  h1.6-R850Q 145756, Mean: 0.86
hNaV1.6 R850Q; -6.4318 LogM
  h1.6-R850Q 145756, Mean: 0.83
hNaV1.6 R850Q; -6.91009 LogM
  h1.6-R850Q 145756, Mean: 0.79
hNaV1.6 R850Q; -7.38722 LogM
  h1.6-R850Q 145756, Mean: 0.58
hNaV1.6 R850Q; -7.85387 LogM
  h1.6-R850Q 145756, Mean: 0.43
hNaV1.6 R850Q; -8.33 LogM
  h1.6-R850Q 145756, Mean: 0.13
[1]; 0.25 µM NBI-921352
  effect on action-potential firing, fast-spiking interneurons: trend toward slightly increased firing frequency; also recorded: no significant effect
[1]; 0.25 μM, 220 pA current injected, individual neurons
  Fast spiking interneurons APs/1s: 51 APs/1s and 58 APs/1s and 67 APs/1s
